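Assay format: 96-well plates, 48-hour exposure. GI50 marks 50% less growth. At the TGI there is no net growth.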
Experiments:
Assay in all cases: NCI tumour cell line growth inhibition, 48 h
MDA-N = test system: MDA-N
DLD-1 colon = test system: DLD-1 colon
DMS 273 small cell lung = test system: DMS 273 small cell lung
M19-MEL melanoma = test system: M19-MEL melanoma
DMS 114 small cell lung = test system: DMS 114 small cell lung
RXF-631 renal = test system: RXF-631 renal
SNB-78 CNS = test system: SNB-78 CNS
HOP-18 NSCLC = test system: HOP-18 NSCLC
KM20L2 colon = test system: KM20L2 colon
P388 leukemia = test system: P388 leukemia
P388/ADR leukemia = test system: P388/ADR leukemia
SN12K1 renal = test system: SN12K1 renal

SMILES	TGI (MDA-N) [µM]	TGI (DLD-1 colon) [µM]	TGI (DMS 273 small cell lung) [µM]	TGI (M19-MEL melanoma) [µM]	TGI (DMS 114 small cell lung) [µM]	TGI (RXF-631 renal) [µM]	TGI (SNB-78 CNS) [µM]	TGI (HOP-18 NSCLC) [µM]	TGI (KM20L2 colon) [µM]	other results
CCCOC(=O)C1C2CCC(O2)C1C(=O)O (configuration not stated)	> 100									
CCOC(=O)CC(NC(=O)c1ccc(N=NN(C)C)cc1)C(=O)OCC (configuration not stated)		> 100	> 100	> 100						
CCCCCCCCCCCCCCCCCC(=O)NCC(COP(=O)(O)O)OCC (configuration not stated)		> 100	> 100	> 100	> 100	77.2	83.3			
COC(=O)C(=O)C(C(=O)C(=O)Nc1cc(Cl)c(Cl)cc1Cl)c1nc2ccc([N+](=O)[O-])cc2[nH]c1=O (configuration not stated)			> 100	> 100	> 100	> 100	> 100	95.2	> 100	
Cc1ccccc1NC(=O)Cc1csc(N=Nc2c(O)[nH]c3ccccc23)n1	> 100									
CC(C)NC(=O)OCc1c(COC(=O)NC(C)C)c(-c2cc[n+](COC(=O)C3CCCCC3)cc2)n2c1CCC2	> 100									
CC(=O)[C-](C(C)=O)c1ccccc1.CC(=O)[C-](C(C)=O)c1ccccc1.CC(=O)[C-](C(C)=O)c1ccccc1.[Cl-].[Zr+4]									> 100	GI50 (KM20L2 colon): > 100 µM
CC(C)N1C(C)[C@@H](c2ccccc2)O[P@]1(=O)CC1=CCCCC1 (some centres not stated)		> 100		> 100	> 100			> 100	> 100	
COc1cc(C(C#N)NNc2nc(C)cc(=O)[nH]2)cc(OC)c1OC (configuration not stated)		> 100	> 100	> 100			> 100	> 100	> 100	
CC(C)(C)Sc1nnc(SC(C)(C)C)c2c(=O)[nH]nc(SC(C)(C)C)c12		22.8	21.3	14.8	15.5	20.5	25.8		22.1	
Cc1noc(/N=C2\C=C(Nc3onc(C)c3C)C(=O)c3ccccc32)c1C		> 100	> 100	17.1	> 100	> 100	> 100	> 100	> 100	
c1ccc(-c2nnc3nn4c(-c5ccccc5)cnnc4c3c2-c2ccccc2)cc1		> 100	> 100	> 100	> 100	66.7	> 100	> 100	> 100	
CC(N1CCOCC1)C(O)(c1ccccc1)c1ccccn1 (configuration not stated)	> 100									
COCCN1C(=O)C2c3[nH]c4ccccc4c3C3CCC(C(C)(C)C)CC3C2C1=O (configuration not stated)	30.1									
O=S1(=O)c2ccccc2N=C(c2ccccc2Cl)CC1c1ccc(F)cc1 (configuration not stated)		28.6	45.3	31.5	41.1		40.3	29.3	37.4	
O=S(=O)(O)SCCNCCCCCC1CCCCC1	26.1									
Cc1ccc2nc(NC(=O)C(=O)CC(=O)c3cccc4ccccc34)sc2c1		> 100	> 100	> 100			> 100	> 100	> 100	
CCCCNC1=C(C(=O)OCC)/C(=N/NC(=O)c2ccccc2O)CO1		> 100		> 100	> 100		> 100	> 100	> 100	
O=C1C=C(N2CCN(CCOCCO)CC2)C(=O)c2c(O)ccc(O)c21	3.29									
O=C1CCC(=O)c2sccc2N1		> 100	> 100	> 100	> 100		> 100	> 100	> 100	
O=CCCCC(Sc1ccccc1)Sc1ccccc1		31.6	33.9	39.8	49	40	37.7		> 100	
COC(=O)C(C(=O)C(N)=O)c1csc(-n2nc(-c3ccccc3)cc2-c2ccccc2)n1 (configuration not stated)		> 31.6	> 31.6	> 31.6	25.2		> 31.6	> 31.6	> 31.6	
COc1ccc2c(c1)c1c3n2CCNN=C3CCC1		> 100	> 100	> 100	> 100	> 100	> 94.3	> 100	> 100	
O=C(Cc1ccccc1)NN1C(=O)/C(=C\c2ccccc2O)SC1=Nc1ccccc1	> 100									

SMILES	TGI (MDA-N) [µM]	TGI (DLD-1 colon) [µM]	TGI (DMS 273 small cell lung) [µM]	TGI (M19-MEL melanoma) [µM]	TGI (DMS 114 small cell lung) [µM]	TGI (RXF-631 renal) [µM]	TGI (SNB-78 CNS) [µM]	TGI (HOP-18 NSCLC) [µM]	TGI (KM20L2 colon) [µM]	other results
O=C(/C=C/C1C(=O)NC(=O)NC1=O)CC(=O)C(=O)Nc1cc(Cl)c(Cl)cc1Cl		> 100	> 100	> 100	> 100		> 100	> 100	> 100	
O=c1[nH]cc(C(F)(C(F)(F)F)C(F)(F)F)c(=O)[nH]1		> 100	> 100	> 100	> 100	> 100	> 100	> 100	> 100	
CC(C)[Si](OCC1CC(C#N)OC(C)(C)O1)(C(C)C)C(C)C (configuration not stated)		> 100	35.8	76.9			52.1	> 100	65.8	
CC(=O)Nc1ccc(-c2nnc(SCC(=O)Nc3ccc(Cl)cc3)o2)cc1		27.9	40.3	45.4	4.29		> 100	30.2	33.3	
CSCCCNC(=O)[C@H](CSC)NC(=O)c1csc(CCNC(=O)[C@@H](NSc2ccccc2[N+](=O)[O-])C(C)O)n1 (some centres not stated)	> 100									
Cc1ccc(S(=NS(=O)(=O)c2ccc(C)cc2)c2ccc(C)cc2)cc1	> 100									
CC1=CC(=O)NP(=O)(C23CC4CC(CC(C4)C2)C3)N1 (configuration not stated)		> 100	> 100	> 100		> 100	> 100	> 100	> 100	
NNC(=O)C(O)C(O)C(=O)NN (configuration not stated)	> 100									
COc1ccc2c([nH]c3c(O)c(-c4c(C)cc5c([nH]c6c(CC=C(C)C)c(OC)ccc65)c4O)c(C)cc32)c1CC=C(C)C		> 100	> 100	> 100	> 100		> 100	> 100	> 100	
C/C(=N\NS(=O)(=O)c1ccc([N+](=O)[O-])cc1)c1ccc[n+]([O-])n1		20.3	2.74	5.05	4.75		51.8	68.2	19.5	
[CH3][Sn]1([CH3])[O]CC(COc2cc(Cl)c(Cl)cc2Cl)[O]1 (configuration not stated)		> 100	> 100		> 100		> 100	> 100	> 100	GI50 (DLD-1 colon): 54.5 µM; GI50 (DMS 114 small cell lung): 50.1 µM; GI50 (DMS 273 small cell lung): > 100 µM; GI50 (HOP-18 NSCLC): 75 µM; GI50 (KM20L2 colon): > 100 µM; GI50 (SNB-78 CNS): 49.6 µM
CCCCCCCCCCCCCCCCOCC(O)CO (configuration not stated)	60.6									
COC(=O)/C(=N\Nc1nnc(C)n1N)C(C#N)c1ccccc1 (configuration not stated)	44.4	> 100	> 100	32.8	42.8	> 100	> 100	> 100	> 100	
C#CCOCn1cnc2ncnc(N)c21		> 100	> 100	> 100	> 100		> 100	> 100		
O=C1C=Cc2ncccc2C1=O		34.2	30.9		33.6	39.5	> 66.5	> 64.7	> 63.2	
Nc1ccn(C2OC(C(OC3OC(CO)C(O)C(N)C3O)C(O)C(O)C(O)C(O)CO)C(N)C(O)C2O)c(=O)n1 (configuration not stated)	> 100									
CC(/C=N/N=C(N)N)=N\N=C(N)N	354	2500	650		171		147	2060	411	GI50 (DMS 114 small cell lung): 95.4 µM; GI50 (KM20L2 colon): 47.6 µM; GI50 (MDA-N): 26.8 µM; TGI (P388 leukemia): 39.8 µM; TGI (P388/ADR leukemia): 352 µM; TGI (SN12K1 renal): 30.1 µM
N#C/C(=C\c1ccc2[nH]ccc2c1)C(=O)c1ccc(O)c(O)c1	> 100	> 100	> 100	> 100	> 100		> 100	> 100	> 100	
Cc1ccc(/C=N/NS(=O)(=O)c2ccccc2)c(C)c1		> 100	> 100	> 100	> 100	> 100	> 100	> 100	> 100	
CC(=O)OC(=O)O/C=C\CCl		> 100	> 100	> 100	> 100	> 100	> 100	> 100	> 100	
Cn1nc(-c2ccccc2)c(C(=O)/C=C/c2ccc(Cl)cc2)c(N2CCCC2)c1=O		10.8	24.2	23.2	9.8	50.5		19.4	15.1	
C/C(CC(=O)Nc1cccc([N+](=O)[O-])c1)=N\NC(=O)CC#N		> 100	> 100		> 100	> 100	> 100		> 100	
CNC(c1ccncc1)C(NC)c1ccncc1 (configuration not stated)	> 100									
